Reference: patent publication US20160135455A1, “SAFENED HERBICIDAL COMPOSITIONS COMPRISING PYRIDINE CARBOXYLIC ACIDS” (Dow AgroSciences LLC, priority 2014, published 2016)
Where two headings read alike, the source gives them in different places.

Key:
Assay type in all cases: in vivo
[1] = system: lambsquarters (CHEAL, Chenopodium album); assay: Postemergence greenhouse trial, herbicidal efficacy on lambsquarters; conditions: post-emergence, 528 h
Protocol: (§1) Seeds of the desired test plant species were planted in Sun Gro MetroMix® 306 planting mixture, which typically has a pH of 6.0 to 6.8 and an organic matter content of about 30 percent, in plastic pots with a surface area of 103.2 square centimeters (cm^2). When required to ensure good germination and healthy plants, a fungicide treatment and/or other chemical or physical treatment was applied. The plants were grown for 7-36 days (d) in a greenhouse with an approximate 14-hour (h) photoperiod which was maintained at about 23° C. during the day and 22° C. during the night. Nutrients and water were added on a regular basis and supplemental lighting was provided with overhead metal halide 1000-Watt lamps as necessary. The plants were employed for testing when they reached the second or third true leaf stage.
(§2) Weighed amounts of technical material were dissolved in a volume of 97:3 volume per volume (v/v) acetone/dimethyl sulfoxide (DMSO) to stock solutions. […] The concentrated stock solutions were diluted with an aqueous mixture of 1.5% v/v of Agri-dex crop oil concentrate to provide the appropriate application rates. Compound requirements are based upon a 12 milliliter (mL) application volume at a rate of 187 liters per hectare (L/ha). Stocks solutions of the safeners were prepared following the same procedure. Spray solutions of the safeners and experimental compound mixtures were prepared by adding the stock solutions to the appropriate amount of dilution solution to form a 12 mL spray solution in two-way combinations. Formulated compounds were applied to the plant material with an overhead Mandel track sprayer equipped with 8002E nozzles calibrated to deliver 187 L/ha over an application area of 0.503 square meters (m^2) at a spray height of 18 inches (43 centimeters (cm)) above average plant canopy. Control plants were sprayed in the same manner with the solvent blank. All herbicide application (component a) rates are in g ae/ha and all safener (component b) rates are in g ai/ha.
(§3) The treated plants and control plants were placed in a greenhouse as described above and watered by sub-irrigation to prevent wash-off of the test compounds. After 20-22 d, the condition of the test plants as compared with that of the control plants was determined visually and scored on a scale of 0 to 100 percent where 0 corresponds to no injury and 100 corresponds to complete kill. The condition of the test plants was compared with that of the control plants as determined visually and scored on a scale of 0 to 100 percent, where 0 corresponds to no injury and 100 corresponds to complete kill. Colby's equation was used to determine the herbicidal effects expected from the mixtures.

[2] = system: nutsedge (CYPES, Cyperus esculentus); assay: Postemergence greenhouse trial, herbicidal efficacy on nutsedge; conditions: applied alone at 35 g/ha; for % visual injury, Obs, CYPES: rated after 20-22 d
Protocol: as §1, §2, §3

[3] = system: poinsettia (EPHHL, Euphorbia heterophylla); assay: Postemergence greenhouse trial, herbicidal efficacy on poinsettia; conditions: for pest or weed control at 35 g/ha: Euphorbia heterophylla, post-emergence, 528 h, read-out: % visual injury, Obs, EPHHL
Protocol: as §1, §2, §3

[4] = system: wild pansy (VIOTR, Viola tricolor); assay: Postemergence greenhouse trial, herbicidal efficacy on wild pansy; conditions: for pest or weed control at 35 g/ha: Viola tricolor, post-emergence, 528 h, read-out: Obs, % visual injury, VIOTR; for % visual injury, Obs, VIOTR: rated after 20-22 d
Protocol: as §1, §2, §3

[5] = system: chickweed (STEME, Stellaria media); assay: Postemergence greenhouse trial, herbicidal efficacy on chickweed; conditions: post-emergence, 528 h
Protocol: as §1, §2, §3

[6] = system: wheat (TRZAS), Triticum aestivum (spring wheat); assay: Postemergence greenhouse trial, crop injury (phytotoxicity/safening) on wheat; conditions: applied alone at 35 g/ha, scored 20-22 d, 0 = no injury, 100 = complete kill
Protocol: as §1, §2, §3
(§4) The safener fenchlorazole-ethyl was combined with compound 1, compound 2, compound 3, compound 4, compound 5, and compound 6, and applied to wheat (TRZAS), and the phytotoxicity of the herbicidal compositions was measured. In addition, the efficacy of the herbicidal composition on velvetleaf (ABUTH, Abutilon theophrasti), pigweed (AMARE, Amaranthus retroflexus), winter rape (BRSNW, Brassica napus), lambsquarters (CHEAL, Chenopodium album), thistle (CIRAR, Cirsium arvense), nutsedge (CYPES, Cyperus esculentus), poinsettia (EPHHL, Euphorbia heterophylla), wild buckwheat (POLCO, Polygonum convolvulus), giant foxtail (SETFA, Setaria faberi), sorghum (SORVU, Sorghum bicolor), chickweed (STEME, Stellaria media), and wild pansy (VIOTR, Viola tricolor) was evaluated.
The safener isoxadifen-ethyl was combined with compound 1, compound 2, compound 3, compound 4, compound 5, and compound 6, and applied to wheat (TRZAS), and the phytotoxicity of the herbicidal compositions was measured. […]

[7] = system: winter rape (BRSNW, Brassica napus); assay: Postemergence greenhouse trial, herbicidal efficacy on winter rape; conditions: post-emergence, 528 h
Protocol: as §1, §2, §3

[8] = system: pigweed (AMARE, Amaranthus retroflexus); assay: Postemergence greenhouse trial, herbicidal efficacy on pigweed; conditions: post-emergence, 528 h
Protocol: as §1, §2, §3

[9] = system: velvetleaf (ABUTH, Abutilon theophrasti); assay: Postemergence greenhouse trial, herbicidal efficacy on velvetleaf; conditions: post-emergence, 528 h
Protocol: as §1, §2, §3

[10] = system: sorghum (SORVU, Sorghum bicolor); assay: Postemergence greenhouse trial, herbicidal efficacy on sorghum; conditions: applied alone at 35 g/ha; for % visual injury, Obs, SORVU: rated after 20-22 d; for Obs, % visual injury, SORVU: scored 20-22 d
Protocol: as §1, §2, §3

[11] = system: thistle (CIRAR, Cirsium arvense); assay: Postemergence greenhouse trial, herbicidal efficacy on thistle; conditions: post-emergence, 528 h
Protocol: as §1, §2, §3

[12] = system: corn/maize (ZEAMX), Zea mays; assay: Postemergence greenhouse trial, crop injury (phytotoxicity/safening) on corn/maize; conditions: applied alone at 35 g/ha, rated after 20-22 d
Protocol: as §1
as §2, with “All herbicide application (component a) rates are in g ae/ha and all safener (component b) rates are in g ai/ha.” left out
as §3, with “Colby's equation was used to determine the herbicidal effects expected from the mixtures.” left out
as §4, with “compound” for “compound 3, compound 4, compound”, “corn/maize (ZEAMX)” for “wheat (TRZAS),”, “bicolor), and” for “bicolor),”, “media)” for “media), and wild pansy (VIOTR, Viola tricolor)”
The safener mefenpyr-diethyl was combined with compound 1, compound 2, and compound 5, and applied to corn/maize (ZEAMX) and the phytotoxicity of the herbicidal compositions were measured. […]

[13] = system: wild buckwheat (POLCO, Polygonum convolvulus); assay: Postemergence greenhouse trial, herbicidal efficacy on wild buckwheat; conditions: Fallopia convolvulus, post-emergence, 528 h
Protocol: as §1, §2, §3

[14] = system: giant foxtail (SETFA, Setaria faberi); assay: Postemergence greenhouse trial, herbicidal efficacy on giant foxtail; conditions: applied alone at 35 g/ha
Protocol: as §1, §2, §3

[15] = read-out: % visual injury, Obs, CHEAL
[16] = read-out: Obs, % visual injury, CHEAL
[17] = applied alone at 35 g/ha, postemergence
[18] = read-out: % visual injury, Obs, STEME
[19] = read-out: Obs, % visual injury, STEME
[20] = read-out: % visual injury, Obs, BRSNW
[21] = read-out: Obs, % visual injury, BRSNW
[22] = read-out: % visual injury, Obs, AMARE
[23] = read-out: Obs, % visual injury, AMARE
[24] = read-out: % visual injury, Obs, ABUTH
[25] = read-out: Obs, % visual injury, ABUTH
[26] = read-out: % visual injury, Obs, CIRAR
[27] = read-out: Obs, % visual injury, CIRAR
[28] = read-out: % visual injury, Obs, POLCO
[29] = read-out: Obs, % visual injury, POLCO
[30] = applied alone at 35 g/ha, postemergence, rated after 20-22 d, read-out: % visual injury, Obs, CHEAL
[31] = applied alone at 35 g/ha, postemergence, scored 20-22 d, read-out: Obs, % visual injury, CHEAL
[32] = applied alone at 35 g/ha, postemergence, rated after 20-22 d
[33] = applied alone at 35 g/ha, postemergence, scored 20-22 d
[34] = applied alone at 35 g/ha, postemergence, rated after 20-22 d, read-out: % visual injury, Obs, STEME
[35] = applied alone at 35 g/ha, postemergence, scored 20-22 d, read-out: Obs, % visual injury, STEME
[36] = applied alone at 35 g/ha, postemergence, rated after 20-22 d, read-out: % visual injury, Obs, BRSNW
[37] = applied alone at 35 g/ha, postemergence, scored 20-22 d, read-out: Obs, % visual injury, BRSNW
[38] = applied alone at 35 g/ha, postemergence, rated after 20-22 d, read-out: % visual injury, Obs, AMARE
[39] = applied alone at 35 g/ha, postemergence, scored 20-22 d, read-out: Obs, % visual injury, AMARE
[40] = applied alone at 35 g/ha, postemergence, rated after 20-22 d, read-out: % visual injury, Obs, ABUTH
[41] = applied alone at 35 g/ha, postemergence, scored 20-22 d, read-out: Obs, % visual injury, ABUTH
[42] = applied alone at 35 g/ha, postemergence, rated after 20-22 d, read-out: % visual injury, Obs, CIRAR
[43] = applied alone at 35 g/ha, postemergence, scored 20-22 d, read-out: Obs, % visual injury, CIRAR
[44] = applied alone at 35 g/ha, postemergence, rated after 20-22 d, read-out: % visual injury, Obs, POLCO

SMILES	pest or weed control at 35 g/ha [1, 15] [%]	pest or weed control at 35 g/ha [1, 16] [%]	% visual injury, Obs, CYPES [2] [%]	pest or weed control at 35 g/ha [3] [%]	pest or weed control at 35 g/ha [4] [%]	% visual injury, Obs, VIOTR [4, 17] [%]	pest or weed control at 35 g/ha [5, 18] [%]	pest or weed control at 35 g/ha [5, 19] [%]	Obs, % visual injury, TRZAS [6] [%]	plant injury at 35 g/ha [7, 20] [%]	plant injury at 35 g/ha [7, 21] [%]	pest or weed control at 35 g/ha [8, 22] [%]	pest or weed control at 35 g/ha [8, 23] [%]	pest or weed control at 35 g/ha [9, 24] [%]	pest or weed control at 35 g/ha [9, 25] [%]	% visual injury, Obs, SORVU [10] [%]	Obs, % visual injury, SORVU [10] [%]	pest or weed control at 35 g/ha [11, 26] [%]	pest or weed control at 35 g/ha [11, 27] [%]	% visual injury, Obs, ZEAMX [12] [%]	other results
CCOC(=O)C1=NN(c2ccc(Cl)cc2Cl)C(C)(C(=O)OCC)C1 (centres unmarked) [mefenpyr-diethyl, reference compound]	0	0	0	0	0	0	0	0	0	0	0	0	0	0	0	0	0	0	0	0	pest or weed control at 35 g/ha [13, 28]: 0%; pest or weed control at 35 g/ha [13, 29]: 0%
COC(=O)c1nc(-c2ccc3ccn(C(=O)C(C)C)c3c2F)c(F)c(N)c1Cl [compound 4]	–	–	0	–	–	–	–	–	40	–	–	–	–	–	–	80	–	–	–	35	pest or weed control at 35 g/ha [1, 30]: 97%; pest or weed control at 35 g/ha [1, 31]: 97%; Obs, % visual injury, CYPES ([2]; scored 20-22 d): 0%; pest or weed control at 35 g/ha [3, 32]: 100%; Obs, % visual injury, EPHHL [3, 33]: 100%; pest or weed control at 35 g/ha [4, 33]: 60%; pest or weed control at 35 g/ha [5, 34]: 93%; pest or weed control at 35 g/ha [5, 35]: 93%; plant injury at 35 g/ha [7, 36]: 97%; plant injury at 35 g/ha [7, 37]: 97%; pest or weed control at 35 g/ha [8, 38]: 100%; pest or weed control at 35 g/ha [8, 39]: 100%; pest or weed control at 35 g/ha [9, 40]: 80%; pest or weed control at 35 g/ha [9, 41]: 80%; pest or weed control at 35 g/ha [11, 42]: 75%; pest or weed control at 35 g/ha [11, 43]: 75%; pest or weed control at 35 g/ha [13, 44]: 100%; pest or weed control at 35 g/ha ([13]; applied alone at 35 g/ha, postemergence, scored 20-22 d, read-out: Obs, % visual injury, POLCO): 100%
COC(=O)c1nc(-c2ccc3ccn(C(=O)C(C)(C)C)c3c2F)c(F)c(N)c1Cl [compound 5]	–	–	0	–	–	40	–	–	45	–	–	–	–	–	–	60	60	–	–	35	pest or weed control at 35 g/ha [1, 30]: 100%; pest or weed control at 35 g/ha [1, 31]: 100%; pest or weed control at 35 g/ha [3, 32]: 100%; pest or weed control at 35 g/ha [4, 33]: 40%; pest or weed control at 35 g/ha [5, 34]: 85%; pest or weed control at 35 g/ha [5, 35]: 85%; plant injury at 35 g/ha [7, 36]: 97%; plant injury at 35 g/ha [7, 37]: 97%; pest or weed control at 35 g/ha [8, 38]: 100%; pest or weed control at 35 g/ha [8, 39]: 100%; pest or weed control at 35 g/ha [9, 40]: 80%; pest or weed control at 35 g/ha [9, 41]: 80%; pest or weed control at 35 g/ha [11, 42]: 80%; pest or weed control at 35 g/ha [11, 43]: 80%; pest or weed control at 35 g/ha [13, 44]: 100%
CCOC(=O)C1=NOC(c2ccccc2)(c2ccccc2)C1 [isoxadifen-ethyl, reference compound]	0	0	–	0	0	0	0	0	0	0	0	0	0	0	0	–	–	0	0	0	% visual injury, Obs, SETFA ([14]; rated after 20-22 d): 0%; Obs, % visual injury, SETFA ([14]; scored 20-22 d): 0%; pest or weed control at 35 g/ha [13, 28]: 0%; pest or weed control at 35 g/ha [13, 29]: 0%
